The numbers were not newly measured in patent US20190290552A1, “ETHANOLIC COMPOSITIONS COMPRISING PERFUME” (Conopco, Inc., d/b/a UNILEVER, priority 2016, published 2019), which cites them from elsewhere.

For the data set the following is noted: taken from the Good Scents website.

For the molecule `CC1=CC[C@]2(C)CCCC(C)(C)[C@@]23C[C@@H]13` [Thujopsene], the LogKow is given as 4.8.

With `CC(C=O)Cc1ccc(C(C)(C)C)cc1` (centres unmarked) [Lilial], the LogKow is reported as 3.6.

As for `CCCCCC1C(=O)CCC1CC(=O)OC` (centres unmarked) [Methyl dihydrojasmonate], the LogKow is given as 2.7. Turning to `C=CC(C)(O)CCC=C(C)C` (centres unmarked) [Linalool], the LogKow is on record as 2.7.

Regarding `C=C(C)[C@H]1CC=C(C)CC1` [Limonene], the LogKow is listed as 3.4. With `C=CC(C)(O)CCC=C(C)CC` (centres unmarked) [3,7-Dimethyl-1,6-nonadien-3-ol], the LogKow is reported as 3.7. Turning to `C=CC(C)(CCC=C(C)C)OC(=O)CCC` (centres unmarked) [Linalyl Butyrate], the LogKow is reported as 4.1. As to `O=C1CCCCCCCCCCCCO1` [Oxacyclotetradecan-2-one], the LogKow is reported as 4.7.
